Where a SMILES comes first, the peptide text is derived from it. Bridges are numbered along the chain shown (N, C = ends). [ ]: non-standard residue; d: D form. The star is where a group is joined. X1 = NC[C@@H](CC(=O)*)c1cccc(Cl)c1; Dab = NCC[C@H](N)C(=O)O; Dap = NC[C@H](N)C(=O)O
Assays:
[1] = tested on: P. aeruginosa ATCC BAA-3107 (SEN) and P. aeruginosa LESB58 (MDR); assay: microbe, parasite or virus in culture; type: cell-based, Pseudomonas aeruginosa; conditions: for MIC of ancestor: ancestor strain; for MIC: across three biological replicates
Outline: (§1)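 Cells at 5 × 10^5 per mL in cation-adjusted MHB 2 across 11 to 16-step dilutions, 2 replicates. Relative MIC expressed as MICevolved/MICancestor.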

[2] = tested on: K. pneumoniae ATCC 10031 (SEN) and K. pneumoniae ATCC 700603 (MDR); assay: microbe, parasite or virus in culture; type: cell-based, Klebsiella pneumoniae; conditions: for MIC: across three biological replicates
Outline: as §1

[3] = tested on: E. coli ATCC 25922 (SEN) and E. coli NCTC13846 (MDR); assay: microbe, parasite or virus in culture; type: cell-based, Escherichia coli; conditions: for MIC of ancestor: ancestor strain; for MIC: across three biological replicates
Outline: as §1

[4] = tested on: E. coli ATCC 25922 (SEN) and E. coli NCTC13846 (MDR); assay: Adaptive laboratory evolution (ALE), relative MIC of evolved lines; type: cell-based, Escherichia coli
Outline: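 Ten parallel populations per antibiotic–ancestor pair were evolved in MHB at 37 °C, starting near 50% growth-inhibiting drug. Every 72 h they were passaged into 0.5–2.5× increasing concentrations, keeping the highest-drug well with OD600 > 0.2.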

CC(C)C[C@@H]1NC(=O)[C@@H](Cc2ccccc2)NC(=O)[C@H](CCN)NC(=O)[C@@H](NC(=O)[C@H](CN)NC(=O)[C@@H](NC(=O)C[C@H](CN)c2cccc(Cl)c2)[C@@H](C)O)CCNC(=O)[C@H]([C@@H](C)O)NC(=O)[C@H](CCN)NC(=O)[C@H](CCN)NC1=O [SPR206] (X1-T[Dap][Dab][Dab][dF]L[Dab][Dab]T; lactam 3-C (inferred); N-terminus assumed)
MIC of ancestor ([1]; P. aeruginosa ATCC BAA 3107 (PA-SEN)): 1 µg/mL | MIC of ancestor ([1]; P. aeruginosa ATCC BAA 3107 (PA-SEN), sheet fig 2a): 1 µg/mL | MIC of ancestor ([1]; P. aeruginosa LESB 58 (PA-MDR)): 4 µg/mL | MIC of ancestor ([1]; P. aeruginosa LESB 58 (PA-MDR), sheet fig 2a): 4 µg/mL | MIC ([1]; Pseudomonas aeruginosa ATCC BAA-3107 (PA-SEN)): 1 µg/mL | MIC ([1]; Pseudomonas aeruginosa LESB 58 (PA-MDR)): 4 µg/mL | MIC of ancestor ([2]; Klebsiella pneumoniae ATCC 10031 (KP-SEN), ancestor strain, sheet fig 2a): 0.5 µg/mL | MIC ([2]; Klebsiella pneumoniae ATCC 10031 (KP-SEN)): 0.5 µg/mL | MIC of ancestor ([2]; Klebsiella pneumoniae ATCC 700603 (KP-MDR), ancestor strain, sheet fig 2a): 0.5 µg/mL | MIC ([2]; Klebsiella pneumoniae ATCC 700603 (KP-MDR)): 0.5 µg/mL | MIC of ancestor ([2]; ancestor KP-MDR (Klebsiella pneumoniae ATCC 700603)): 0.5 µg/mL | MIC of ancestor ([2]; ancestor KP-SEN (Klebsiella pneumoniae ATCC 10031)): 0.5 µg/mL | MIC of ancestor ([3]; E. coli ATCC 25922 (EC-SEN)): 0.25 µg/mL | MIC of ancestor ([3]; E. coli ATCC 25922 (EC-SEN), sheet fig 2a): 0.25 µg/mL | MIC of ancestor ([3]; E. coli NCTC 13846 (EC-MDR)): 4 µg/mL | MIC of ancestor ([3]; E. coli NCTC 13846 (EC-MDR), sheet fig 2a): 4 µg/mL | MIC ([3]; Escherichia coli ATCC 25922 (EC-SEN)): 0.25 µg/mL | MIC ([3]; Escherichia coli NCTC 13846 (EC-MDR)): 4 µg/mL | Relative MIC ([4]; ALE, E. coli ATCC 25922 (EC-SEN), evolved line 1): 512 | Relative MIC ([4]; ALE, E. coli ATCC 25922 (EC-SEN), evolved line 2): 256 | Relative MIC ([4]; ALE, E. coli ATCC 25922 (EC-SEN), evolved line 3): 512 | Relative MIC ([4]; ALE, E. coli ATCC 25922 (EC-SEN), evolved line 4): 256 | Relative MIC ([4]; ALE, E. coli ATCC 25922 (EC-SEN), evolved line 5): 128 | Relative MIC ([4]; ALE, E. coli ATCC 25922 (EC-SEN), evolved line 6): 512 | Relative MIC ([4]; ALE, E. coli ATCC 25922 (EC-SEN), evolved line 7): 256 | Relative MIC ([4]; ALE, E. coli ATCC 25922 (EC-SEN), evolved line 8): 128 | Relative MIC ([4]; ALE, E. coli ATCC 25922 (EC-SEN), evolved line 9): 256 | Relative MIC ([4]; ALE, E. coli ATCC 25922 (EC-SEN), evolved line 10): 16 | Relative MIC ([4]; ALE, E. coli NCTC 13846 (EC-MDR), evolved line 1): 8 | Relative MIC ([4]; ALE, E. coli NCTC 13846 (EC-MDR), evolved line 2): 16 | Relative MIC ([4]; ALE, E. coli NCTC 13846 (EC-MDR), evolved line 3): 16 | Relative MIC ([4]; ALE, E. coli NCTC 13846 (EC-MDR), evolved line 4): 16 | Relative MIC ([4]; ALE, E. coli NCTC 13846 (EC-MDR), evolved line 5): 32 | Relative MIC ([4]; ALE, E. coli NCTC 13846 (EC-MDR), evolved line 6): 8 | Relative MIC ([4]; ALE, E. coli NCTC 13846 (EC-MDR), evolved line 7): 8 | Relative MIC ([4]; ALE, E. coli NCTC 13846 (EC-MDR), evolved line 8): 16 | Relative MIC ([4]; ALE, E. coli NCTC 13846 (EC-MDR), evolved line 9): 16 | Relative MIC ([4]; ALE, E. coli NCTC 13846 (EC-MDR), evolved line 10): 32 | Relative MIC (log10) ([4]; EC-MDR (Escherichia coli NCTC 13846), evolved line 2): 1.204 log10 | Relative MIC (log10) ([4]; EC-MDR (Escherichia coli NCTC 13846), evolved line 4): 1.204 log10 | Relative MIC (log10) ([4]; EC-MDR (Escherichia coli NCTC 13846), evolved line 8): 1.204 log10 | Relative MIC (log10) ([4]; EC-MDR (Escherichia coli NCTC 13846), evolved line 9): 1.204 log10 | Relative MIC (log10) ([4]; EC-MDR (Escherichia coli NCTC 13846), evolved line 10): 1.505 log10 | MIC of evolved line ([4]; EC-MDR (NCTC 13846), evolved line 1): 32 µg/mL | Relative MIC ([4]; EC-MDR (NCTC 13846), evolved line 1, evolved vs ancestor): 8 | MIC of evolved line ([4]; EC-MDR (NCTC 13846), evolved line 2): 64 µg/mL | Relative MIC ([4]; EC-MDR (NCTC 13846), evolved line 2, evolved vs ancestor): 16 | Relative MIC ([4]; EC-MDR (NCTC 13846), evolved line 3, evolved vs ancestor): 16 | MIC of evolved line ([4]; EC-MDR (NCTC 13846), evolved line 4): 64 µg/mL | Relative MIC ([4]; EC-MDR (NCTC 13846), evolved line 4, evolved vs ancestor): 16 | Relative MIC ([4]; EC-MDR (NCTC 13846), evolved line 5, evolved vs ancestor): 32 | Relative MIC ([4]; EC-MDR (NCTC 13846), evolved line 6, evolved vs ancestor): 8 | MIC of evolved line ([4]; EC-MDR (NCTC 13846), evolved line 7): 32 µg/mL | Relative MIC ([4]; EC-MDR (NCTC 13846), evolved line 7, evolved vs ancestor): 8 | Relative MIC ([4]; EC-MDR (NCTC 13846), evolved line 8, evolved vs ancestor): 16 | Relative MIC ([4]; EC-MDR (NCTC 13846), evolved line 9, evolved vs ancestor): 16 | Relative MIC ([4]; EC-MDR (NCTC 13846), evolved line 10, evolved vs ancestor): 32 | MIC of evolved line ([4]; EC-MDR NCTC 13846, evolved line 3): 64 µg/mL | MIC of evolved line ([4]; EC-MDR NCTC 13846, evolved line 5): 128 µg/mL | MIC of evolved line ([4]; EC-MDR NCTC 13846, evolved line 6): 32 µg/mL | MIC of evolved line ([4]; EC-MDR NCTC 13846, evolved line 8): 64 µg/mL | MIC of evolved line ([4]; EC-MDR NCTC 13846, evolved line 9): 64 µg/mL | MIC of evolved line ([4]; EC-MDR NCTC 13846, evolved line 10): 128 µg/mL | MIC of evolved line ([4]; EC-SEN (ATCC 25922), evolved line 1): 128 µg/mL | Relative MIC ([4]; EC-SEN (ATCC 25922), evolved line 1, evolved vs ancestor): 512 | MIC of evolved line ([4]; EC-SEN (ATCC 25922), evolved line 2): 64 µg/mL | Relative MIC ([4]; EC-SEN (ATCC 25922), evolved line 2, evolved vs ancestor): 256 | MIC of evolved line ([4]; EC-SEN (ATCC 25922), evolved line 3): 128 µg/mL | Relative MIC ([4]; EC-SEN (ATCC 25922), evolved line 3, evolved vs ancestor): 512 | MIC of evolved line ([4]; EC-SEN (ATCC 25922), evolved line 4): 64 µg/mL | Relative MIC ([4]; EC-SEN (ATCC 25922), evolved line 4, evolved vs ancestor): 256 | MIC of evolved line ([4]; EC-SEN (ATCC 25922), evolved line 5): 32 µg/mL | Relative MIC ([4]; EC-SEN (ATCC 25922), evolved line 5, evolved vs ancestor): 128 | MIC of evolved line ([4]; EC-SEN (ATCC 25922), evolved line 6): 128 µg/mL | Relative MIC ([4]; EC-SEN (ATCC 25922), evolved line 6, evolved vs ancestor): 512 | MIC of evolved line ([4]; EC-SEN (ATCC 25922), evolved line 7): 64 µg/mL | Relative MIC ([4]; EC-SEN (ATCC 25922), evolved line 7, evolved vs ancestor): 256 | MIC of evolved line ([4]; EC-SEN (ATCC 25922), evolved line 8): 32 µg/mL | Relative MIC ([4]; EC-SEN (ATCC 25922), evolved line 8, evolved vs ancestor): 128 | MIC of evolved line ([4]; EC-SEN (ATCC 25922), evolved line 9): 64 µg/mL | Relative MIC ([4]; EC-SEN (ATCC 25922), evolved line 9, evolved vs ancestor): 256 | MIC of evolved line ([4]; EC-SEN (ATCC 25922), evolved line 10): 4 µg/mL | Relative MIC ([4]; EC-SEN (ATCC 25922), evolved line 10, evolved vs ancestor): 16 | Relative MIC (log10) ([4]; EC-SEN (Escherichia coli ATCC 25922), evolved line 3): 2.709 log10 | Relative MIC (log10) ([4]; EC-SEN (Escherichia coli ATCC 25922), evolved line 4): 2.408 log10 | Relative MIC (log10) ([4]; EC-SEN (Escherichia coli ATCC 25922), evolved line 6): 2.709 log10 | Relative MIC (log10) ([4]; EC-SEN (Escherichia coli ATCC 25922), evolved line 9): 2.408 log10 | Relative MIC (log10) ([4]; EC-SEN, Escherichia coli ATCC 25922, evolved line 1): 2.709 log10 | Relative MIC ([4]; Escherichia coli ATCC 25922 (EC-SEN), evolved line 1): 512 | Relative MIC ([4]; Escherichia coli ATCC 25922 (EC-SEN), evolved line 2): 256 | Relative MIC ([4]; Escherichia coli ATCC 25922 (EC-SEN), evolved line 3): 512 | Relative MIC ([4]; Escherichia coli ATCC 25922 (EC-SEN), evolved line 4): 256 | Relative MIC ([4]; Escherichia coli ATCC 25922 (EC-SEN), evolved line 5): 128 | Relative MIC ([4]; Escherichia coli ATCC 25922 (EC-SEN), evolved line 6): 512 | Relative MIC ([4]; Escherichia coli ATCC 25922 (EC-SEN), evolved line 7): 256 | Relative MIC ([4]; Escherichia coli ATCC 25922 (EC-SEN), evolved line 8): 128 | Relative MIC ([4]; Escherichia coli ATCC 25922 (EC-SEN), evolved line 9): 256 | Relative MIC ([4]; Escherichia coli ATCC 25922 (EC-SEN), evolved line 10): 16 | Relative MIC ([4]; Escherichia coli NCTC 13846 (EC-MDR), evolved line 1): 8 | Relative MIC ([4]; Escherichia coli NCTC 13846 (EC-MDR), evolved line 2): 16 | Relative MIC ([4]; Escherichia coli NCTC 13846 (EC-MDR), evolved line 3): 16 | Relative MIC ([4]; Escherichia coli NCTC 13846 (EC-MDR), evolved line 4): 16 | Relative MIC ([4]; Escherichia coli NCTC 13846 (EC-MDR), evolved line 5): 32 | Relative MIC ([4]; Escherichia coli NCTC 13846 (EC-MDR), evolved line 6): 8 | Relative MIC ([4]; Escherichia coli NCTC 13846 (EC-MDR), evolved line 7): 8 | Relative MIC ([4]; Escherichia coli NCTC 13846 (EC-MDR), evolved line 8): 16 | Relative MIC ([4]; Escherichia coli NCTC 13846 (EC-MDR), evolved line 9): 16 | Relative MIC ([4]; Escherichia coli NCTC 13846 (EC-MDR), evolved line 10): 32
